Marks after values point to notes of the source that are not given here. Ends that are not written are not given here.
How the values were obtained:
rice Senia seeds = assay: Phytotoxicity, rice germination assay; format: in vivo, Oryza sativa L.; settings: for Phytotoxicity (germination): minimal peptide concentration causing significant alteration of shoot length: 12 Senia seeds per treatment germinated 7 days in 0, 8, 16, 32, 64 μM peptide, 28°C, one-way ANOVA; for Effect on rice seedling development at high concentrations: germination test, Senia seeds, 7 days, 125 and 250 μM also tested
Description: For each treatment, a total of 12 surface-sterilized Senia seeds were germinated in 500 μl water or peptide solution at the appropriate concentration (0, 8, 16, 32 and 64 μM) in a culture chamber (28 ± 1°C with a photoperiod of 16 h light / 8 h dark under fluorescent Sylvania Cool White lamps) for seven days. Seedling morphology was recorded and shoot length was measured.

tobacco leaves = assay: Phytotoxicity, tobacco leaf inoculation assay; format: in vivo, Nicotiana benthamiana; settings: for Phytotoxicity at 150 μM (inoculation): lesion diameter: 100 μl of 150 μM peptide inoculated into tobacco leaf mesophyll, three days, mean and standard error, at least three inoculations
Description: Tobacco (Nicotiana benthamiana) plants were grown from seed in a heated glasshouse and used between 20 and 30 days old. One hundredμl chemically synthesized peptides at 50, 100, 150 or 250 μM were inoculated into the mesophylls of fully expanded tobacco leaves (previously wounded with a needle), using a syringe without needle, and plants were kept at standard glasshouse conditions for three days. Up to six independent inoculations were carried out in a single leaf, and at least three independent inoculations were performed per peptide and concentration, randomly distributed in different leaves and plants. Toxicity was measured as the lesion diameter.

[1] = test system: erythrocyte suspensions of fresh human blood; settings: human erythrocytes 5% v/v, TRIS/NaCl pH 7.2, 1 h 37°C, A540, relative to mellitin; confidence interval for α = 0.05; cited from earlier work
mice = settings: cited from earlier work
[2] = test system: Dickeya chrysanthemi 1552-10-1 (Dc); assay: In vitro growth inhibition (MIC), Dickeya chrysanthemi; settings: 10^8 bacterial CFU/ml suspension in TSB, microtiter plate, 25°C 48 h, OD 600 nm; three replicates, two experimental replicates
Description: (§1) Peptides were solubilized in sterile Milli-Q H2O to a concentration of 1 mM and filter sterilized through a 0.22 μm pore filter. […] Bacterial strains were stored at −80°C in Luria Bertani (LB) broth with glycerol (20%). After 24 h (Ea, Pss and Dc) or 48 h (Xav) growth in LB agar at 25°C, bacterial colonies were scraped off the surface, suspended in sterile H2O and adjusted to 10^8 CFU/ml. The fungal strain was stored at 4°C in the particulate solid carrier perlite, on fresh potato dextrose agar (PDA). Fv cultures were prepared in potato dextrose broth (PDB) and incubated for one week at 25°C in the dark in a rotary shaker at 125 rpm. They were filtered through several layers of sterile cheesecloth to eliminate macroconidia and mycelial growth. The effluent was centrifuged at 8,000 rpm for 20 min at 4°C and the pellet was suspended in sterile water. Microconidia concentration was determined in a counting chamber.
(§2) Serial dilutions of synthetic peptides were prepared at 400, 200, 100, 50, 25, 12.5 and 6 μM. […] Microplates were incubated at 25°C for 48 h (bacterial strains) or 22°C for 6 days (Fv), and optical densities at 600 nm were recorded hourly (every two hours for Fv) after 20 s shaking. […]

[3] = test system: Xanthomonas axonopodis pv. vesicatoria 2133-2 (Xav); assay: In vitro growth inhibition (MIC), Xanthomonas axonopodis pv. vesicatoria; settings: 10^8 bacterial CFU/ml suspension in TSB, microtiter plate, 25°C 48 h, OD 600 nm; three replicates, two experimental replicates
Description: as §1, §2

[4] = test system: erythrocyte suspensions of fresh human blood; assay: Hemolytic activity (hemoglobin release); format: cell-based; settings: human erythrocytes 5% v/v, TRIS/NaCl pH 7.2, 150 μM peptide, 1 h 37°C, A540
Description: Hemoglobin release from erythrocyte suspensions of fresh human blood (5% v/v) was used to evaluate hemolytic activity of synthetic peptides. Briefly, aseptically collected blood (BD vacutainer K2E System with EDTA, Belliver Industrial State, Plymouth, UK) was centrifuged at 6,000 g for 5 min, washed with 10 mM TRIS, 150 mM NaCl, pH 7.2 and suspended in the same buffer. Fifty μl of peptide solutions at 300 μM were mixed with 50 μl aliquots of erythrocyte suspensions and incubated for 1h at 37 °C with shaking. After centrifugation, the supernatants were transferred to microplate wells with 80 μl H2O and the 540 nm absorbance was monitored with a Bioscreen plate reader. Hemolysis percentages were calculated relative to mellitin and TRIS buffer.

[5] = test system: Erwinia amylovora PMV6076 (Ea); assay: In vitro growth inhibition (MIC), Erwinia amylovora; settings: 10^8 bacterial CFU/ml suspension in TSB, microtiter plate, 25°C 48 h, OD 600 nm; three replicates, two experimental replicates; MIC = lowest concentration with no growth
Description: as §1, §2

[6] = test system: Pseudomonas syringae pv. syringae EPS94 (Pss); assay: In vitro growth inhibition (MIC), Pseudomonas syringae pv. syringae; settings: 10^8 bacterial CFU/ml suspension in TSB, microtiter plate, 25°C 48 h, OD 600 nm; three replicates, two experimental replicates
Description: as §1, §2

| Molecule | Phytotoxicity (germination): minimal peptide concentration causing significant alteration of shoot length (rice Senia seeds) [µM] | Effect on rice seedling development at high concentrations (rice Senia seeds) | Phytotoxicity at 150 μM (inoculation): lesion diameter (tobacco leaves) | Hemolytic activity at 150 μM [1] [%] | Biocompatibility in acute oral toxicity tests (mice) | Antimicrobial activity Dc, minimal inhibitory concentration (MIC) [2] [µM] | Antimicrobial activity Xav, minimal inhibitory concentration (MIC) [3] [µM] | Hemolytic activity at 150 μM, ratio between each peptide and the reference peptide BP100 [4] | Antimicrobial activity Ea, minimal inhibitory concentration (MIC) [5] [µM] | Antimicrobial activity Pss, minimal inhibitory concentration (MIC) [6] [µM] | Lesions in tobacco leaves compared with BP100 and BP100 derivatives (tobacco leaves; inoculation of 50 to 250 μM, same doses, positive control) |
| --- | --- | --- | --- | --- | --- | --- | --- | --- | --- | --- | --- |
| CC[C@H](C)[C@H](NC(=O)[C@H](CCCCN)NC(=O)[C@H](CCCCN)NC(=O)[C@H](Cc1ccccc1)NC(=O)[C@H](CC(C)C)NC(=O)[C@H](CCCCN)NC(=O)[C@@H](N)CCCCN)C(=O)N[C@@H](CC(C)C)C(=O)N[C@@H](CCCCN)C(=O)N[C@@H](Cc1ccc(O)cc1)C(=O)N[C@@H](CC(C)C)C(N)=O [BP100] | 64 | barely effected root growth but almost completely inhibited shoot development | 0.90 ± 0.05^a cm | 22.0 ± 2.8 | highly biocompatible | 5 to 10 | 5.0 to 10 |  |  |  |  |
| KKLFKKILKYLAGPAKKLFKKILKYLAGPAKKLFKKILKYLKDEL-NH2 (C-terminus assumed) [BP100.3] | 16 |  | 1.38 ± 0.04^b cm |  |  |  |  | 4 |  |  |  |
| KKLFKKILKYLAGPAKKLFKKILKYLKDEL-NH2 (C-terminus assumed) [BP100.2] | 32 |  | 1.15 cm |  |  |  |  | 3 |  |  |  |
| CC[C@H](C)[C@H](NC(=O)[C@H](CCCCN)NC(=O)[C@H](CCCCN)NC(=O)[C@H](Cc1ccccc1)NC(=O)[C@H](CC(C)C)NC(=O)[C@H](CCCCN)NC(=O)[C@@H](N)CCCCN)C(=O)N[C@@H](CC(C)C)C(=O)N[C@@H](CCCCN)C(=O)N[C@@H](Cc1ccc(O)cc1)C(=O)N[C@@H](CC(C)C)C(=O)O [unmodified BP100] | 64 |  | 0.80 ± 0.02^a cm |  |  | 10 to 20 | 10 to 20 | 1 | 5.0 to 10 | 5.0 to 10 |  |
| CC[C@H](C)[C@H](NC(=O)[C@H](CCCCN)NC(=O)[C@H](CCCCN)NC(=O)[C@H](Cc1ccccc1)NC(=O)[C@H](CC(C)C)NC(=O)[C@H](CCCCN)NC(=O)[C@@H](N)CCCCN)C(=O)N[C@@H](CC(C)C)C(=O)N[C@@H](CCCCN)C(=O)N[C@@H](Cc1ccc(O)cc1)C(=O)N[C@@H](CC(C)C)C(=O)N[C@@H](CCCCN)C(=O)N[C@@H](CC(=O)O)C(=O)N[C@@H](CCC(=O)O)C(=O)N[C@@H](CC(C)C)C(N)=O [BP100.1] | 64 |  | 1.17 cm |  |  |  |  | <1 |  |  |  |
| KKLFKKILKYLTTGLPALISAGPASILAPLGTTLYKLIKKFLKKKDEL-NH2 (C-terminus assumed) [BP100.2mi] | 16 |  | 1.46 ± 0.12^b cm |  |  |  |  | 5 |  |  |  |
| CC[C@H](C)[C@H](NC(=O)[C@H](CC(C)C)NC(=O)[C@H](CCCCN)NC(=O)[C@H](Cc1ccc(O)cc1)NC(=O)[C@H](CC(C)C)NC(=O)[C@H](C)NC(=O)[C@@H]1CCCN1C(=O)CNC(=O)[C@H](C)NC(=O)[C@H](CC(C)C)NC(=O)[C@H](Cc1ccc(O)cc1)NC(=O)[C@H](CCCCN)NC(=O)[C@H](CC(C)C)NC(=O)[C@@H](NC(=O)[C@H](CCCCN)NC(=O)[C@H](CCCCN)NC(=O)[C@H](Cc1ccccc1)NC(=O)[C@H](CC(C)C)NC(=O)[C@H](CCCCN)NC(=O)[C@@H](N)CCCCN)[C@@H](C)CC)C(=O)N[C@@H](CCCCN)C(=O)N[C@@H](CCCCN)C(=O)N[C@@H](Cc1ccccc1)C(=O)N[C@@H](CC(C)C)C(=O)N[C@@H](CCCCN)C(=O)N[C@@H](CCCCN)C(=O)N[C@@H](CCCCN)C(=O)N[C@@H](CC(=O)O)C(=O)N[C@@H](CCC(=O)O)C(=O)N[C@@H](CC(C)C)C(N)=O [BP100.2i] | 16 |  | 1.32 ± 0.06^b cm |  |  |  |  | 4 |  |  |  |
| mellitin: highly cytotoxic, potent hemolytic natural AMP, 26 amino acids, positive control [reference compound] |  | predominantly inhibited root growth while allowing moderate shoot development |  |  |  |  |  |  |  |  | more severe lesions |
